Laboratory results: the NIST ThermoML archive (doi:10.1021/je1010054)
± gives the expanded uncertainty stated by the source.

Conditions: Crystal; visual observation

O=C1C=CC(=O)N1c1cc(F)c(Br)c(F)c1 [1-(4-bromo-3,5-difluorophenyl)-1H-pyrrole-2,5-dione] showed a Normal melting temperature of 197.50 ± 0.53 °C.
